According to paper PMC11413854, “Reversible Control of Native GluN2B-Containing NMDA Receptors with Visible Light” (ACS Chemical Neuroscience, 2024):
Like-named read-outs stand apart in the source and are kept apart here.

Target: T1, GluN1/GluN2B NMDA receptors (UniProt P35439+Q01097)
T1 construct: expressed in transfected cells; host or cells: Xenopus laevis oocytes (nuclear cDNA injection)
Assay: TEVC electrophysiology on Xenopus oocytes expressing wt GluN1/GluN2B NMDARs
Type: cell-based, rat GluN1, mouse GluN2B
Settings: for Relative current for theoretical DRC 9% trans / Relative current for theoretical DRC 18% trans / remaining activity at 0.03 µM / remaining activity at 0.1 µM / remaining activity at 0.3 µM / remaining activity at 2 µM: GluN1/GluN2B wt; for Relative current for theoretical DRC 9% trans: theoretical for 350 nm PSS; for Relative current for theoretical DRC 18% trans: theoretical for 365 nm PSS; for remaining activity at 0.03 µM / remaining activity at 0.1 µM / remaining activity at 0.3 µM / remaining activity at 2 µM: Sup. Fig. 3F, read-out: Relative current (IOpto/I0); for remaining activity at 0.03 µM: [OptoNAM-3] 0.03 µM; for remaining activity at 0.1 µM: [OptoNAM-3] 0.1 µM
Source text: The activity of OptoNAM-3 was functionally monitored by electrophysiology on Xenopus oocytes (see Methods). To assess the light-dependent effect, we tested the activities of the dark PSS (mostly trans) and the UV PSS (mostly cis, see above) separately. For each concentration, we prepared a solution divided into two samples: one in which the compound was kept in the dark for the duration of the experiment (dark PSS state); and the other that was preilluminated with either 350 or 365 nm light (350 or 365 nm PSS) and then kept away from the light for the duration of the experiment in order to avoid photoisomerization of the compounds by ambient light (see Methods). […] We generated dose–response curves of OptoNAM-3 dark and UV PSS on wild-type (wt) GluN1/GluN2B NMDA receptors (Figure 3A) in the presence of saturating concentrations of agonists (100 μM glutamate and glycine).
We used cDNA coding for rat GluN1–1a (named GluN1 herein) (GenBank: U08261.1), rat GluN2A (GenBank: D13211.1), mouse GluN2B (GenBank: D10651.2), rat GluA1 flop (GenBank: M36418.2), and rat Myc-GluA2(Q)-flip (GenBank: AF164344.1) cloned into pcDNA3-based expression plasmids. GluK2 (GenBank: Z11548.1) corresponds to the fully RNA-edited version.[80] The GluN2B-ΔNTD construct is from ref[45] and GluN2B–N615K is from ref[81]. Single mutants GluN2B-Q110G and GluN1-L135H were from ref[19]. The GluA2 cDNA contains a Myc tag ([…]) fused between the signal peptide and the N-terminus sequences, and the GluA2 subunit is […] for its Q/R/N site (GluA2(Q)) to allow permeation of homomeric GluA2 receptors.[2] cDNAs coding for rat GluN2C (GenBank: M91563.1) and GluN2D subunits (GenBank: L31611.1) were in prK5 plasmids.
Oocytes from Xenopus laevis were used for heterologous expression of recombinant NMDA receptors studied using a two-electrode voltage clamp (TEVC). Female Xenopus laevis were housed and ovary bags harvested according to the European Union guidelines (husbandry authorizations #C75–05–31 and #D75–05–31; project authorizations #05137.02; and Apafis #28867–2020121814485893). Fragments of ovary bags were also purchased from the “Centre de Ressources Biologiques Xenopes” (now TEFOR, Paris Saclay, France) and from the European Xenopus Resource Center (EXRC, Portsmouth, UK). Xenopus laevis oocytes were harvested and prepared as previously described in ref[82].
Expression of recombinant NMDA receptors was obtained by oocyte nuclear coinjection of 37 nL of a mixture of cDNAs (at 30 ng/μL) coding for GluN1–1a and various GluN2 subunits (ratio 1:1). The protocol in ref[43] was followed for the expression of GluN1/GluN2A/GluN2B triheteromers. The oocytes were transferred in 96-well plates filled with Barth solution (in mM: 88 NaCl, 1 KCl, 0.33 Ca(NO3)2, 0.41 CaCl2, 0.82 MgSO4, 2.4 NaHCO3, and 7.5 HEPES, pH adjusted to 7.3 with NaOH), supplemented with gentamicin ([…]) and 50 μM APV, a selective NMDA receptor antagonist. Plates were then stored at 18 °C for 24 h for GluN1/GluN2A expression and for 48––72 h for the expression of GluN1/Glu2B, GluN1/GluN2A/GluN2B, and mutants.
TEVC recordings were performed 1–3 days following injection. TEVC recordings were performed using an Oocyte Clamp amplifier OC-725 (Warner Instruments) and computer-controlled via a 1440A Digidata (Molecular Devices). Currents were sampled at 100 Hz and low-pass-filtered at 20 Hz using an 8-pole Bessel filter (900 Series, Frequency Devices Inc.).

[1] = OptoNAM-3 dark PSS (trans) + 0.2 µM ifenprodil
[2] = OptoNAM-3 dark PSS (trans), no ifenprodil
[3] = preilluminated in solution, Xenopus oocytes

T1 sequence (Q01097 27-1482, other chains not shown): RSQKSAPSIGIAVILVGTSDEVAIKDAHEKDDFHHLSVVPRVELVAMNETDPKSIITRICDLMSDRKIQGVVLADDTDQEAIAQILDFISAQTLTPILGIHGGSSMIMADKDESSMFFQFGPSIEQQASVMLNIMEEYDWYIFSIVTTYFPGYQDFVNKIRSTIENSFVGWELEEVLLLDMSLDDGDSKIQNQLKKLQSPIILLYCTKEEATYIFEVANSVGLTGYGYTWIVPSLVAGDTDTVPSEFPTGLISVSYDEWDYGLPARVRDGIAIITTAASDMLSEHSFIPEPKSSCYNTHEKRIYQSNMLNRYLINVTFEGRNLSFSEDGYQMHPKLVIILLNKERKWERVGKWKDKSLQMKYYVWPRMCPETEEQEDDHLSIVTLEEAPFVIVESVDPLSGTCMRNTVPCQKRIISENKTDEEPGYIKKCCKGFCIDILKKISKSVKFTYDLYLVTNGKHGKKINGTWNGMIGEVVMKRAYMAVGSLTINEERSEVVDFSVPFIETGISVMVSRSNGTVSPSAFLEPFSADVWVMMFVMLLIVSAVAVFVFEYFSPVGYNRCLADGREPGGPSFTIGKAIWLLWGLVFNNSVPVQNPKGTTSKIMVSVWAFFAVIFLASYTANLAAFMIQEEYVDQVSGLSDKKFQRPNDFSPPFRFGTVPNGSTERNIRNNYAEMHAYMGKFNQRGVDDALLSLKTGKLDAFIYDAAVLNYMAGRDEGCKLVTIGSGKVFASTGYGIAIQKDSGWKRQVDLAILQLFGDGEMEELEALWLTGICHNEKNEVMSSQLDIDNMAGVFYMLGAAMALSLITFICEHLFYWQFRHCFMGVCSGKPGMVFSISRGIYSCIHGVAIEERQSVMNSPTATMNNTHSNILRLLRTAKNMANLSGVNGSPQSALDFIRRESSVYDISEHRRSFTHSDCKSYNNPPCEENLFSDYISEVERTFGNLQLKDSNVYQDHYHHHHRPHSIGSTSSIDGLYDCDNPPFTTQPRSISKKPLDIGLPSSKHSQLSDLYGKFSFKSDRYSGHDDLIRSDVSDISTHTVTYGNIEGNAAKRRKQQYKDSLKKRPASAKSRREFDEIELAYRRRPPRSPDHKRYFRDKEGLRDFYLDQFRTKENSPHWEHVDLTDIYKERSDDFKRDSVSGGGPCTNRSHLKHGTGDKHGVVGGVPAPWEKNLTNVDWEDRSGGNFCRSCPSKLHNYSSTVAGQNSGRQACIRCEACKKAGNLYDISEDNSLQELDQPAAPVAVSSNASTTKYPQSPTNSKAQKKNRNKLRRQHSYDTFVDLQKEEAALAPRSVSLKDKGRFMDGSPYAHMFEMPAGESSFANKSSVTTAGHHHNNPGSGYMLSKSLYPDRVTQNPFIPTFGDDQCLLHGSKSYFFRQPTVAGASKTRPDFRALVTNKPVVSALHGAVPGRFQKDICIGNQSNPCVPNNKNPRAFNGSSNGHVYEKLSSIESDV

Relative current for theoretical DRC 9% trans ([OptoNAM-3] 1 µM): 0.775
Relative current for theoretical DRC 9% trans ([OptoNAM-3] 2 µM): 0.656
Relative current for theoretical DRC 9% trans ([OptoNAM-3] 3 µM): 0.570
Relative current for theoretical DRC 9% trans ([OptoNAM-3] 5 µM): 0.452
Relative current for theoretical DRC 18% trans ([OptoNAM-3] 0.025 µM): 0.980
Relative current for theoretical DRC 18% trans ([OptoNAM-3] 0.05 µM): 0.965
Relative current for theoretical DRC 18% trans ([OptoNAM-3] 0.125 µM): 0.924
Relative current for theoretical DRC 18% trans ([OptoNAM-3] 0.22 µM): 0.880
Relative current for theoretical DRC 18% trans ([OptoNAM-3] 0.3 µM): 0.848
Relative current for theoretical DRC 18% trans ([OptoNAM-3] 0.5 µM): 0.775
Relative current for theoretical DRC 18% trans ([OptoNAM-3] 1 µM): 0.656
Relative current for theoretical DRC 18% trans ([OptoNAM-3] 2 µM): 0.500
Relative current for theoretical DRC 18% trans ([OptoNAM-3] 3 µM): 0.416
Relative current for theoretical DRC 18% trans ([OptoNAM-3] 5 µM): 0.307
Relative current for theoretical DRC 18% trans ([OptoNAM-3] 30 µM): 0.073
remaining activity at 0.03 µM [1]: 93.3%
remaining activity at 0.1 µM [1]: 89%
remaining activity at 0.3 µM (OptoNAM-3 dark PSS (trans) + 0.2 µM ifenprodil, [OptoNAM-3] 0.3 µM): 77.3%
remaining activity at 2 µM (OptoNAM-3 dark PSS (trans) + 0.2 µM ifenprodil, [OptoNAM-3] 2 µM): 32.6%
remaining activity at 0.03 µM [2]: 95.1%
remaining activity at 0.1 µM [2]: 84.9%
remaining activity at 0.3 µM (OptoNAM-3 dark PSS (trans), no ifenprodil, [OptoNAM-3] 0.3 µM): 63.5%
remaining activity at 2 µM (OptoNAM-3 dark PSS (trans), no ifenprodil, [OptoNAM-3] 2 µM): 14.7%
Mean Relative current (IOpto/I0) ([OptoNAM-3] 0.025 µM, 365 nm PSS): 0.933
Mean Relative current (IOpto/I0) ([OptoNAM-3] 0.025 µM, dark PSS (trans)): 0.887
Mean Relative current (IOpto/I0) ([OptoNAM-3] 0.050 µM, 365 nm PSS): 0.910
Mean Relative current (IOpto/I0) ([OptoNAM-3] 0.050 µM, dark PSS (trans)): 0.827
Mean Relative current (IOpto/I0) ([OptoNAM-3] 0.125 µM, 350 nm PSS): 0.907
Mean Relative current (IOpto/I0) ([OptoNAM-3] 0.125 µM, 365 nm PSS): 0.912
Mean Relative current (IOpto/I0) ([OptoNAM-3] 0.125 µM, dark PSS (trans)): 0.758
Mean Relative current (IOpto/I0) ([OptoNAM-3] 0.220 µM, 365 nm PSS): 0.880
Mean Relative current (IOpto/I0) ([OptoNAM-3] 0.220 µM, dark PSS (trans)): 0.592
Mean Relative current (IOpto/I0) ([OptoNAM-3] 0.300 µM, 350 nm PSS): 0.918
Mean Relative current (IOpto/I0) ([OptoNAM-3] 0.300 µM, 365 nm PSS): 0.841
Mean Relative current (IOpto/I0) ([OptoNAM-3] 0.300 µM, dark PSS (trans)): 0.581
Mean Relative current (IOpto/I0) ([OptoNAM-3] 0.470 µM, 350 nm PSS): 0.900
Mean Relative current (IOpto/I0) ([OptoNAM-3] 0.500 µM, 365 nm PSS): 0.666
Mean Relative current (IOpto/I0) ([OptoNAM-3] 1.000 µM, 350 nm PSS): 0.860
Mean Relative current (IOpto/I0) ([OptoNAM-3] 1.000 µM, 365 nm PSS): 0.644
Mean Relative current (IOpto/I0) ([OptoNAM-3] 1.000 µM, dark PSS (trans)): 0.307
Mean Relative current (IOpto/I0) ([OptoNAM-3] 2.000 µM, 350 nm PSS): 0.656
Mean Relative current (IOpto/I0) ([OptoNAM-3] 2.000 µM, 365 nm PSS): 0.433
Mean Relative current (IOpto/I0) ([OptoNAM-3] 2.000 µM, dark PSS (trans)): 0.141
Mean Relative current (IOpto/I0) ([OptoNAM-3] 3.000 µM, 350 nm PSS): 0.613
Mean Relative current (IOpto/I0) ([OptoNAM-3] 3.000 µM, 365 nm PSS): 0.375
Mean Relative current (IOpto/I0) ([OptoNAM-3] 3.000 µM, dark PSS (trans)): 0.098
Mean Relative current (IOpto/I0) ([OptoNAM-3] 5.000 µM, 350 nm PSS): 0.446
Mean Relative current (IOpto/I0) ([OptoNAM-3] 5.000 µM, 365 nm PSS): 0.267
Mean Relative current (IOpto/I0) ([OptoNAM-3] 5.000 µM, dark PSS (trans)): 0.092
Mean Relative current (IOpto/I0) ([OptoNAM-3] 30.000 µM, 365 nm PSS): 0.034
Mean Relative current (IOpto/I0) ([OptoNAM-3] 30.000 µM, dark PSS (trans)): 0.00423
IC50 (control curve of the ifenprodil competition experiment, read-out: IC50 in the dark in absence of ifenprodil): 460 ± 60 nM
increase of IC50 by 0.2 µM ifenprodil (dark): ~ 2 fold
IC50 (dark PSS (trans), 100 µM glutamate + glycine, Xenopus oocytes, read-out: IC50 on GluN1/GluN2B receptors in the dark): 380 ± 30 nM
IC50 (dark PSS (trans), Xenopus oocytes, read-out: IC50 on GluN1/GluN2B receptors in the dark): 380 nM
UV/dark IC50 ratio (350 nm PSS vs dark) [3]: 11.5 fold
UV/dark IC50 ratio (365 nm PSS vs dark) [3]: 4.5 fold
IC50 (range over HEK cells and Xenopus oocytes, read-out: IC50 in the dark (trans isomer)): 150 to 380 nM
activity of the cis isomer on GluN1/GluN2B NMDARs (theoretical dose-response curve of a pure cis population calculated from 365 and 350 nm PSS): no inhibitory activity
Compound: c1ccc(/N=N/c2ccc(CCNc3ccncc3)cc2)cc1 [OptoNAM-3, (E)-N-(4-(Phenyldiazenyl)phenethyl)pyridin-4-amine]
